For twelve compounds, IC50 and activity results are on record in patent US20210107871A1 (priority 2017, published 2021).

What all share (type): cell-based
The test system of assay [1] is bundibugyo Ebola virus (pseudotype VSV). In words: microbe, parasite or virus in culture. The settings on record: read-out: C values.
Assay [2] concerns sudan Ebola virus (pseudotype VSV). In words: microbe, parasite or virus in culture. The settings on record: Sudan ebolavirus, read-out: C values.
Assay [3] has as its system reston Ebola virus (pseudotype VSV). In words: microbe, parasite or virus in culture. As to conditions: Reston ebolavirus, read-out: C values.
In assay [4] the test system is Marburgvirus (Angola strain) (pseudotype VSV). The assay can be described thus: microbe, parasite or virus in culture. As to conditions: Orthomarburgvirus, read-out: C values.
For assay [5], the system named is pseudotype VSV (expressing GFP) having the surface glycoprotein of Ebola virus (zaire sp.). The assay can be described thus: organism not typed. As to conditions: for IC50: Vero C1008; for activity at 0.005 µM / activity at 0.02 µM / activity at 0.078 µM / activity at 0.312 µM / activity at 0.625 µM / activity at 1.25 µM / activity at 2.5 µM / activity at 5 µM: Vesicular stomatitis virus, Vero C1008, 18 h, read-out: Viral Infection rate (%); for activity at 0.005 µM: Compound Conc. 0.005 μM; for activity at 0.02 µM: Compound Conc. 0.020 μM; for activity at 0.078 µM: Compound Conc. 0.078 μM; for activity at 0.312 µM: Compound Conc. 0.312 μM; for activity at 0.625 µM: Compound Conc. 0.625 μM; for activity at 1.25 µM: Compound Conc. 1.25 μM; for activity at 2.5 µM: Compound Conc. 2.5 μM; for activity at 5 µM: Compound Conc. 5 μM.

Assay [6] has as its system tai forest Ebola virus (pseudotype VSV). The assay can be described thus: microbe, parasite or virus in culture. As to conditions: read-out: C values.

SMILES strings stand for the structures.

In the case of `COc1ccc(N(CC2CCN(C)CC2)S(=O)(=O)c2ccccc2)c(-c2ccccc2)c1` [4-20], in assay [1], the IC50 was around 50 nM. In addition, the IC50 in assay [2] was around 300 nM. In addition, the IC50 in assay [3] was around 1000 nM. Also, the IC50 in assay [4] was in the range of 1000 to 5000 nM. Besides, in assay [5], the IC50 is around 50 nM, the activity at 0.005 µM turned out to be 91.8%, the activity at 0.02 µM was 78.8% and the activity at 0.078 µM came to 43.7%. In assay [5], the activity at 0.312 µM is 4.58%, the activity at 0.625 µM is 2.58%, the activity at 1.25 µM turned out to be 0.23% and the activity at 2.5 µM came to 0.09%. The activity at 5 µM in assay [5] amounted to 0.17%. In assay [6], the IC50 was in the range of 500 to 1000 nM.
Turning to `COc1ccc(N(CCCN(C)C)S(=O)(=O)c2ccccc2)c(-c2ccccc2)c1` [4-27, N-[3-(dimethylamimo)propyl]-N-(4-methoxy-2-phenyl-phenyl)benzensulfonamide], in assay [1], the IC50 is around 50 nM. Further, the IC50 in assay [2] was around 300 nM. In addition, the IC50 in assay [3] is around 1000 nM. Besides, in assay [4], the IC50 lay within 1000 to 5000 nM. For the same compound, in assay [5], the IC50 is around 50 nM, the activity at 0.02 µM came out at 81.5%, the activity at 0.078 µM came out at 45% and the activity at 0.312 µM is 3.49%. In assay [5], the activity at 0.625 µM is 0.4%, the activity at 1.25 µM turned out to be 0.18%, the activity at 2.5 µM is 0.14% and the activity at 5 µM came to 0.2%. Moreover, the IC50 in assay [6] lay in the range of 500 to 1000 nM.
Regarding `CCN1CCC(CN(c2ccc(OC)cc2-c2ccccc2)S(=O)(=O)c2ccccc2)CC1` [4-21], in assay [1], the IC50 was around 50 nM. Further, the IC50 in assay [2] is around 300 nM. Besides, the IC50 in assay [3] is around 1000 nM. Moreover, the IC50 in assay [4] lay within 1000 to 5000 nM. In addition, in assay [5], the IC50 was around 50 nM, the activity at 0.02 µM stood at 64.6%, the activity at 0.078 µM was determined as 28.5% and the activity at 0.312 µM was 0.75%. Further, in assay [5], the activity at 0.625 µM was 0.22%, the activity at 1.25 µM was determined as 0.18%, the activity at 2.5 µM turned out to be 0.12% and the activity at 5 µM was 0.17%. The IC50 in assay [6] was in the range of 500 to 1000 nM.
Turning to `CCN(CC)CCCN(c1ccc(OC)cc1-c1ccccc1)S(=O)(=O)c1ccccc1` [4-17, N-[3-(diethylamino)propyl]-N-(4-methoxy-2-phenyl-phenyl)benzensulfonamide], in assay [1], the IC50 was around 50 nM. The IC50 in assay [2] was around 300 nM. Further, the IC50 in assay [3] is around 1000 nM. For the same compound, in assay [4], the IC50 lay within 1000 to 5000 nM. For the same compound, in assay [5], the IC50 was around 50 nM, the activity at 0.02 µM was determined as 72.6%, the activity at 0.078 µM came out at 34.6% and the activity at 0.312 µM was determined as 1.91%. For the same compound, in assay [5], the activity at 0.625 µM was determined as 2.05%, the activity at 1.25 µM turned out to be 0.2%, the activity at 2.5 µM came to 0.81% and the activity at 5 µM stood at 0.22%. Moreover, the IC50 in assay [6] lay within 500 to 1000 nM.
For `CCN(CC)CCCN(c1ccc(OC)cc1[N+](=O)[O-])S(=O)(=O)c1cccc2ccccc12` [4-9, N-[3-(diethylamino)propyl]-N-(4-methoxy-2-nitro-phenyl)naphthalene-1-sulfonamide], in assay [5], the activity at 0.312 µM is 82.5%, the activity at 0.625 µM was 58.6%, the activity at 1.25 µM came to 20.8% and the activity at 5 µM is 2.32%.
Regarding `COc1ccc(N(CCN2CCCCC2)S(=O)(=O)c2ccccc2)c(-c2ccccc2)c1` [4-35, N-(4-methoxy-2-phenyl-phenyl)-N-[2-(1-piperidyl)ethyl]benzensulfonamide], in assay [5], the activity at 0.312 µM stood at 89.5%, the activity at 0.625 µM worked out at 82.3%, the activity at 1.25 µM is 1.82% and the activity at 2.5 µM was found to be 30.3%.
As to `CCN1CCC(CN(c2ccc(C(C)C)cc2-c2ccccc2)S(=O)(=O)c2ccccc2)CC1` [4-45, N-(4-isopropyl-2-phenyl-phenyl)-N-(1-ethyl-4-piperidylmethyl)benzensulfonamide], in assay [5], the activity at 0.005 µM is 90.8%, the activity at 0.02 µM amounted to 101%, the activity at 0.078 µM was 104% and the activity at 0.312 µM was 103%. Further, in assay [5], the activity at 1.25 µM was found to be 69.5% and the activity at 5 µM turned out to be 0.23%.
For `COc1ccc(N(CC2CCCN(C(=O)OC(C)(C)C)C2)S(=O)(=O)c2ccccc2)c(-c2ccccc2)c1` (stereo not drawn) [4-22, t-butyl-3-[[N-(benzenesulfonyl)-4-methoxy-2-phenyl-anilino]methyl]piperidine-1-carboxylate], the activity at 5 µM in assay [5] was around 8.7%.
As to `CCN(CC)CCCN(c1ccccc1-c1ccccc1)S(=O)(=O)c1cccc2ccccc12` [4-13, N-[3-(diethylamino)propyl]-N-(2-phenyl-phenyl)naphthalene-1-sulfonamide], the activity at 0.625 µM in assay [5] is 90.2%.
For the compound `COc1ccc(N(CCCN)S(=O)(=O)c2ccccc2)c(-c2ccccc2)c1` [4-32, N-(3-aminopropyl)-N-(4-methoxy-2-phenyl-phenyl)benzensulfonamide], in assay [5], the activity at 0.312 µM came out at 86%, the activity at 0.625 µM worked out at 82.4%, the activity at 1.25 µM amounted to 57.8% and the activity at 2.5 µM came to 15.8%. In addition, in assay [5], the activity at 5 µM was found to be 0.47%.
For the compound `COc1ccc(N(CC2CCN(C(=O)OC(C)(C)C)CC2)S(=O)(=O)c2ccccc2)c(-c2ccccc2)c1` [4-18, t-butyl-4-[[N-(benzenesulfonyl)-4-methoxy-2-phenyl-anilino]methyl]piperidine-1-carboxylate], the activity at 5 µM in assay [5] came out at 23.3%.
`COc1ccc(N(CC2CCCNC2)S(=O)(=O)c2ccccc2)c(-c2ccccc2)c1` (stereo not drawn) [4-23, N-(4-methoxy-2-phenyl-phenyl)-N-(3-piperidylmethyl)benzensulfonamide]: in assay [5], the activity at 0.312 µM is 100%, the activity at 2.5 µM is around 24.4% and the activity at 5 µM was determined as 1.79%.
